The record followed here is US20230416196A1, “DIMER OF BIGUANIDINES AND THEIR THERAPEUTIC USES” (INSTITUT CURIE, priority 2020, published 2023).

Structures can show the parent of a compound that is named as a salt.

For one experiment, the system named is HMLER CD44^high/CD24^low. Nature of the experiment: Cell viability assay (CellTiter-Blue) on breast cancer stem cell model HMLER CD44high/CD24low. Format: cell-based, human. The following applies: for IC50: Homo sapiens, cell viability, 72 h treatment, read-out: IC50 against HMLER CD44^high/CD24^low. How it is done: Cell viability assay (IC50). Cell viability assay was carried out by plating 1000 cells/well in 96-well plates. Cells were treated for 72 h in a range between to 25 nM and […] using serial dilutions. The inventors followed the manufacturer's protocol. In brief, CellTiter-Blue® reagent (G8081, Promega) was added after 72 h treatment and cells were incubated for 3 h before recording fluorescence intensities (λex. 560/20 nm; λem. 590/10 nm) using a Perkin Elmer Wallac 1420 Victor2 Microplate Reader.
Cell culture. MCF7 (ATCC) cells, DU-145 (ATCC) cells and FC1245 cells were cultured in Dulbecco's Modified Eagle Medium GlutaMAX (DMEM, ThermoFisher Scientific, 61965059) supplemented with 10% Fetal Bovine Serum (FBS, Gibco, 10270-106) and Penicillin-Streptomycin mixture (BioWhittaker/Lonza, DE17-602E) unless stated otherwise. Primary lung circulating tumor cells (Celprogen, 36107-34CTC, Lot 219411) were grown using stem cell complete media (Celprogen, M36102-29PS) until the third passage. Circulating cancer cells were grown in stem cell ECM T75-flasks (Celprogen, E36102-29-T75) and ECM 6-well plates (Celprogen, E36102-29-6Well). HMLER cells ([…]) naturally repressing E-cadherin, obtained from human mammary epithelial cells infected with a retrovirus carrying hTERT, SV40 and the oncogenic allele H-rasV12, and HMLER CD44 and TFRC ko clones were cultured in DMEM/F12 (Thermo Fisher Scientific, 31331093) supplemented with 10% FBS (Thermo Fisher Scientific, 10270106), 10 μg/mL insulin (Sigma-Aldrich, 10516), 0.5 μg/mL hydrocortisone (Sigma-Aldrich, H0888) and 0.5 μg/mL puromycin (Life Technologies, A11138-02), unless stated otherwise. HMLER CD44^high cells were also supplemented with 10 ng/mL EGF (Miltenyi Biotech, 130-097-750).

A further experiment relates to U937 cells. The experiment can be described thus: Cell viability assay (CellTiter-Blue) on lymphoma cell line U937. Format: cell-based. The settings on record: Homo sapiens, U-937, 72 h treatment. The procedure: Cell culture. U-937 cells were grown in an incubator equilibrated at 37° C. with 5% CO2, grown to confluence and split with Trypsin/EDTA (Gibco, […]01) once or twice a week according to confluence. U-937 (ATCC, HTB-132) were cultured in RPMI 1640 GLUTAMAX (ThermoFisher Scientific, 61870044) supplemented with 10% Fetal Bovine Serum (FBS, Gibco, 10270-106) and Penicillin-Streptomycin mixture (BioWhittaker/Lonza, DE17-602E). […] Peripheral blood samples were collected from distinct healthy donors (Etablissement Français du Sang). Pan monocytes were isolated by negative magnetic sorting using microbeads according to the manufacturer's instructions (Miltenyi Biotec, 130-096-537), and cultured in RPMI 1640 supplemented with glutamine (Thermo Fisher Scientific, 61870010), 10% fetal bovine serum and exposed to granulocyte-macrophage colony-stimulating factor (GM-CSF, Miltenyi Biotec, 130-093-866, 100 ng/mL) to induce differentiation into macrophages (MDM). […] Cell viability assay (IC50). Cell viability assay was carried out by plating 1000 cells/well in 96-well plates. Cells were treated for 72 h in a range between to 25 nM and […] using serial dilutions. The inventors followed the manufacturer's protocol. In brief, CellTiter-Blue® reagent (G8081, Promega) was added after 72 h treatment and cells were incubated for 3 h before recording fluorescence intensities (λex. 560/20 nm; λem. 590/10 nm) using a Perkin Elmer Wallac 1420 Victor2 Microplate Reader.
(In general: Alamar Blue is a resazurin reagent that responds to reducing activity.)

Experiment [1] has as its system activated macrophages (act. MDM), CD86 activation marker. Nature of the experiment: CD86 macrophage activation marker by flow cytometry in LPS/IFNγ-activated monocyte-derived macrophages (Example 4). Type of experiment: cell-based, human. The following applies: LCCs at 10 μM, 24 h co-treatment; several values per compound. The procedure: Cell culture. U-937 cells were grown in an incubator equilibrated at 37° C. with 5% CO2, grown to confluence and split with Trypsin/EDTA (Gibco, […]01) once or twice a week according to confluence. U-937 (ATCC, HTB-132) were cultured in RPMI 1640 GLUTAMAX (ThermoFisher Scientific, 61870044) supplemented with 10% Fetal Bovine Serum (FBS, Gibco, 10270-106) and Penicillin-Streptomycin mixture (BioWhittaker/Lonza, DE17-602E). […] Peripheral blood samples were collected from distinct healthy donors (Etablissement Français du Sang). Pan monocytes were isolated by negative magnetic sorting using microbeads according to the manufacturer's instructions (Miltenyi Biotec, 130-096-537), and cultured in RPMI 1640 supplemented with glutamine (Thermo Fisher Scientific, 61870010), 10% fetal bovine serum and exposed to granulocyte-macrophage colony-stimulating factor (GM-CSF, Miltenyi Biotec, 130-093-866, 100 ng/mL) to induce differentiation into macrophages (MDM). […] Flow cytometry. Cells were washed with ice-cold 1×PBS, incubated with Fc block (Human TruStain FcX, Biolegend, 422302, 1/20) for 15 min, incubated with antibodies for 20 min at 4° C. and washed before analysis using a BD LSRFortessa X-20. Macrophages were analyzed with an antibody panel consisting of antibodies against the following cell surface proteins: CD44, CD80, CD86 and TfR1. The data were analyzed with FlowJo software v. 10.0.00003. […]
For orientation: Flow cytometry measures light scatter and fluorescence of single cells or particles in a stream.

In the next experiment the test system is macrophage activation. Nature of the experiment: Macrophage activation, copper(I)-targeting agents. Format: cell-based.

With `CN(C)C(=N)NC(=N)N` [Metformin, 1,1-dimethylbiguanid hydrochloride, reference compound], the IC50 with HMLER CD44^high/CD24^low turned out to be 22600 µM; in the experiment with U937 cells it was 10000 µM.

For the compound `N=C1NCCCCCCCCCCCCNC(=N)NC(=N)NCCCCCCCCCCCCNC(=N)N1` [Coronaformin-12,12], in the experiment on U937 cells, the IC50 was 0.5 µM.

Turning to `CCCNC(=N)NC(=N)NCCCCCCCCCCNC(=N)NC(=N)NCCC` [LCC-10,3], the “Effect on CD86 macrophage activation marker (Flow cytometry) (% of activation marker compared to its level in activated macrophages)” value in experiment [1] is listed as 22%. For the same compound, the IC50 with U937 cells was 0.6 µM.

In the case of `N=C1NCCCCCCCCNC(=N)NC(=N)NCCCCCCCCNC(=N)N1` [Coronaformin-8,8], in the experiment on U937 cells, the IC50 came out at 3 µM.

In the case of `[NH4+].[NH4+].[SH-].[SH-].[S]=[Mo]=[S]` [ATTM], the “efficacy on macrophage activation” value in the experiment on macrophage activation is “lack of efficacy”.

As for `N=C(N)NC(=N)NCCCCCCCCCCNC(=N)NC(=N)N` [LCC-10], the “improved IC50 compared with metformin” value with HMLER CD44^high/CD24^low (HMLER CD44high/CD24low) is recorded as “about 400 fold”. Also, the IC50 with HMLER CD44^high/CD24^low came out at 58 µM; with U937 cells, 20 µM.

Regarding `CN(CCCCCCCCN(C)C(=N)NC(=N)N)C(=N)NC(=N)N` [LCC-8Me], the “Effect on CD86 macrophage activation marker (Flow cytometry) (% of activation marker compared to its level in activated macrophages)” value in experiment [1] is 89%. For the same compound, the IC50 in the experiment with U937 cells amounted to 150 µM.

`CN(CCCCCCCCCCCCN(C)C(=N)NC(=N)N)C(=N)NC(=N)N` [LCC-12Me]: the IC50 in the experiment on U937 cells amounted to 6 µM.

Consider `CCCNC(=N)NC(=N)NCCCCCCCCNC(=N)NC(=N)NCCC` [LCC-8,3], for which, in the experiment on U937 cells, the IC50 turned out to be 2 µM.

On to `CCNC(=N)NC(=N)NCCCCCCCCCCNC(=N)NC(=N)NCC` [LCC-10,2], for which, in the experiment on U937 cells, the IC50 turned out to be 1 µM.

Take `CC(C)(S)[C@@H](N)C(=O)O` [D-Pen]: the “efficacy on macrophage activation” value in the experiment with macrophage activation was “lack of efficacy”.

In the case of `N=C1NCCCCCCCCCCNC(=N)NC(=N)NCCCCCCCCCCNC(=N)N1` [Coronaformin-10,10], in the experiment with U937 cells, the IC50 was determined as 1 µM.
